Assay results as given in patent US20230085307A1, “PYRIDAZINONE COMPOUND AND HERBICIDE” (NISSAN CHEMICAL CORPORATION, priority 2019, published 2023).

Assays:
blackgrass [1] = assay: Test Example 5: herbicidal effect by foliage application, plastic box (Table 20, symbol J); format: in vivo, blackgrass (Alopecurus myosuroides); conditions: foliage application, 320 g/ha, three weeks after application
How it was run: (§1)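 Sow seeds spot-wise in sterilized diluvial soil; cover with ~1.5 cm soil. Grow 14 days in greenhouse, 25° C. to 30° C. Spray foliage with emulsion diluted to predetermined amount. Rate effect after 3 weeks.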

persian speedwell = assay: Test Example 5: herbicidal effect by foliage application, plastic box (Table 20, symbol R); format: in vivo, Persian speedwell (Veronica persica); conditions: foliage application, 320 g/ha, three weeks after application
How it was run: as §1

redroot pigweed [2] = assay: Test Example 4: herbicidal effect by soil treatment (Table 19, symbol N); format: in vivo, redroot pigweed (Amaranthus retroflexus); conditions: amount of applied herbicide 320 g/ha
How it was run: (§2)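 Applied as a water-diluted emulsion, the compound was sprayed onto soil covering newly sown seeds. Evaluation came three weeks after application, in a greenhouse held at 25° C. to 30° C.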

lambsquarters = assay: Test Example 5: herbicidal effect by foliage application, plastic box (Table 20, symbol O); format: in vivo, lambsquarters (Chenopodium album); conditions: foliage application, 320 g/ha, three weeks after application
How it was run: as §1

velvetleaf = assay: Test Example 5: herbicidal effect by foliage application, plastic box (Table 20, symbol M); format: in vivo, velvetleaf (Abutilon theophrasti); conditions: foliage application, 320 g/ha, three weeks after application
How it was run: as §1

late watergrass = assay: Test Example 1: herbicidal activity, application before weed generation under submerged conditions (Table 16, symbol A); format: in vivo, late watergrass (Echinochloa oryzicola); conditions: amount of applied herbicide 320 g/ha
How it was run: (§3)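 Submerged Wagner pots (alluvial soil, 4 cm water) sown with weed seeds and planted with 2.5-leaf rice seedlings; emulsifiable concentrate diluted in water applied to water surface on sowing day. Held in greenhouse at 25-30 °C; injury scored 0-5 by herbicidal rate after three weeks.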

Japanese bulrush = assay: Test Example 1: herbicidal activity, application before weed generation under submerged conditions (Table 16, symbol B); format: in vivo, Japanese bulrush (Schoenoplectus juncoides); conditions: amount of applied herbicide 320 g/ha
How it was run: as §3

rice flat sedge = assay: Test Example 3: herbicidal effect by foliage application, Wagner pot (Table 18, symbol E); format: in vivo, rice flat sedge (Cyperus iria); conditions: for herbicidal effect on rice flat sedge (E): 320 g/ha
How it was run: (§4)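 Plants were sown in alluvial soil held under 0.1–0.5 cm standing water and grown 14 days in a greenhouse at 25–30 °C. An emulsifiable formulation, water-diluted to the set dose, was then sprayed onto the foliage, and effects were scored three weeks later using previously defined criteria.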

barnyard grass [3] = assay: Test Example 5: herbicidal effect by foliage application, plastic box (Table 20, symbol H); format: in vivo, barnyard grass (Echinochloa crus-galli); conditions: foliage application, 320 g/ha, three weeks after application
How it was run: as §1

green foxtail [4] = assay: Test Example 5: herbicidal effect by foliage application, plastic box (Table 20, symbol G); format: in vivo, green foxtail (Setaria viridis); conditions: foliage application, 320 g/ha, three weeks after application
How it was run: as §1

barnyard grass [5] = assay: Test Example 3: herbicidal effect by foliage application, Wagner pot (Table 18, symbol H); format: in vivo, barnyard grass (Echinochloa crus-galli); conditions: for herbicidal effect on barnyard grass (H): 320 g/ha
How it was run: as §4

southern crabgrass = assay: Test Example 4: herbicidal effect by soil treatment (Table 19, symbol F); format: in vivo, southern crabgrass (Digitaria ciliaris); conditions: amount of applied herbicide 320 g/ha
How it was run: as §2

windgrass = assay: Test Example 5: herbicidal effect by foliage application, plastic box (Table 20, symbol L); format: in vivo, windgrass (Apera spica-venti); conditions: foliage application, 320 g/ha, three weeks after application
How it was run: as §1

green foxtail [6] = assay: Test Example 4: herbicidal effect by soil treatment (Table 19, symbol G); format: in vivo, green foxtail (Setaria viridis); conditions: amount of applied herbicide 320 g/ha
How it was run: as §2

Italian ryegrass = assay: Test Example 5: herbicidal effect by foliage application, plastic box (Table 20, symbol K); format: in vivo, Italian ryegrass (Lolium multiflorum); conditions: foliage application, 320 g/ha, three weeks after application
How it was run: as §1

redroot pigweed [7] = assay: Test Example 5: herbicidal effect by foliage application, plastic box (Table 20, symbol N); format: in vivo, redroot pigweed (Amaranthus retroflexus); conditions: foliage application, 320 g/ha, three weeks after application
How it was run: as §1

Chinese sprangletop = assay: Test Example 3: herbicidal effect by foliage application, Wagner pot (Table 18, symbol D); format: in vivo, chinese sprangletop (Leptochloa chinensis); conditions: for herbicidal effect on Chinese sprangletop (D): 320 g/ha
How it was run: as §4

blackgrass [8] = assay: Test Example 4: herbicidal effect by soil treatment (Table 19, symbol J); format: in vivo, blackgrass (Alopecurus myosuroides); conditions: amount of applied herbicide 320 g/ha
How it was run: as §2

[9] = amount of applied herbicide 320 g/ha

| SMILES | N: redroot pigweed, herbicidal effect grade (redroot pigweed [2]) | Herbicidal effect, A: late watergrass (late watergrass) | Herbicidal effect, B: Japanese bulrush (Japanese bulrush) | herbicidal effect on rice flat sedge (E) (rice flat sedge) | herbicidal effect on barnyard grass (H) (barnyard grass [5]) | F: southern crabgrass, herbicidal effect grade (southern crabgrass) | G: green foxtail, herbicidal effect grade (green foxtail [6]) | herbicidal effect on Chinese sprangletop (D) (Chinese sprangletop) | herbicidal effect on blackgrass (J) (blackgrass [1]) | herbicidal effect on persian speedwell (R) (persian speedwell) | herbicidal effect on lambsquarters (O) (lambsquarters) | herbicidal effect on velvetleaf (M) (velvetleaf) | herbicidal effect on barnyard grass (H) (barnyard grass [3]) | herbicidal effect on green foxtail (G) (green foxtail [4]) | J: blackgrass, herbicidal effect grade (blackgrass [8]) | herbicidal effect on windgrass (L) (windgrass) | herbicidal effect on Italian ryegrass (K) (Italian ryegrass) | also measured |
| --- | --- | --- | --- | --- | --- | --- | --- | --- | --- | --- | --- | --- | --- | --- | --- | --- | --- | --- |
| C=CCOc1ccc2c(-c3c(O)c(C)nn(C)c3=O)c(-c3ccccc3OC)sc2c1 [3-111] | 5 (Herbicidal rate of 90% or more (almost completely withered)) | 5 (Herbicidal rate of 90% or more (almost completely withered)) | 5 (Herbicidal rate of 90% or more (almost completely withered)) | 5 (Herbicidal rate of 90% or more (almost completely withered)) | 5 (Herbicidal rate of 90% or more (almost completely withered)) | 5 (Herbicidal rate of 90% or more (almost completely withered)) | 5 (Herbicidal rate of 90% or more (almost completely withered)) | 3 (Herbicidal rate of 40% or more and less than 70%) | – | – | – | – | – | – | – | – | – | J: blackgrass, herbicidal effect grade (blackgrass [1]): 5 (Herbicidal rate of 90% or more (almost completely withered)); R: persian speedwell, herbicidal effect grade (persian speedwell): 5 (Herbicidal rate of 90% or more (almost completely withered)); O: lambsquarters, herbicidal effect grade (lambsquarters): 5 (Herbicidal rate of 90% or more (almost completely withered)); M: velvetleaf, herbicidal effect grade (velvetleaf): 5 (Herbicidal rate of 90% or more (almost completely withered)); H: barnyard grass, herbicidal effect grade (barnyard grass [3]): 5 (Herbicidal rate of 90% or more (almost completely withered)); G: green foxtail, herbicidal effect grade (green foxtail [4]): 5 (Herbicidal rate of 90% or more (almost completely withered)); L: windgrass, herbicidal effect grade (windgrass): 5 (Herbicidal rate of 90% or more (almost completely withered)); K: Italian ryegrass, herbicidal effect grade (Italian ryegrass): 5 (Herbicidal rate of 90% or more (almost completely withered)); N: redroot pigweed, herbicidal effect grade (redroot pigweed [7]): 5 (Herbicidal rate of 90% or more (almost completely withered)) |
| COc1ccccc1-c1sc2cc(C)c(C)cc2c1-c1c(O)c(C)nn(C)c1=O [5-090] | 0 (Herbicidal rate of 5% or less (almost no effect)) | 3 (Herbicidal rate of 40% or more and less than 70%) | 3 (Herbicidal rate of 40% or more and less than 70%) | 5 (Herbicidal rate of 90% or more (almost completely withered)) | 5 (Herbicidal rate of 90% or more (almost completely withered)) | 0 (Herbicidal rate of 5% or less (almost no effect)) | 0 (Herbicidal rate of 5% or less (almost no effect)) | 2 (Herbicidal rate of 20% or more and less than 40%) | 4 (Herbicidal rate of 70% or more and less than 90%) | 4 (Herbicidal rate of 70% or more and less than 90%) | 4 (Herbicidal rate of 70% or more and less than 90%) | 5 (Herbicidal rate of 90% or more (almost completely withered)) | 4 (Herbicidal rate of 70% or more and less than 90%) | 5 (Herbicidal rate of 90% or more (almost completely withered)) | 0 (Herbicidal rate of 5% or less (almost no effect)) | 4 (Herbicidal rate of 70% or more and less than 90%) | 5 (Herbicidal rate of 90% or more (almost completely withered)) | – |
| CCCC(=O)Oc1c(C)nn(C)c(=O)c1-c1c(-c2ccccc2OCC)sc2cc(C)c(C)cc12 [5-095] | 0 (Herbicidal rate of 5% or less (almost no effect)) | 5 (Herbicidal rate of 90% or more (almost completely withered)) | 4 (Herbicidal rate of 70% or more and less than 90%) | 4 (Herbicidal rate of 70% or more and less than 90%) | 5 (Herbicidal rate of 90% or more (almost completely withered)) | 0 (Herbicidal rate of 5% or less (almost no effect)) | 0 (Herbicidal rate of 5% or less (almost no effect)) | 5 (Herbicidal rate of 90% or more (almost completely withered)) | 4 (Herbicidal rate of 70% or more and less than 90%) | 5 (Herbicidal rate of 90% or more (almost completely withered)) | 3 (Herbicidal rate of 40% or more and less than 70%) | 4 (Herbicidal rate of 70% or more and less than 90%) | 4 (Herbicidal rate of 70% or more and less than 90%) | 5 (Herbicidal rate of 90% or more (almost completely withered)) | 0 (Herbicidal rate of 5% or less (almost no effect)) | 4 (Herbicidal rate of 70% or more and less than 90%) | 4 (Herbicidal rate of 70% or more and less than 90%) | – |
| CCOc1cc(F)ccc1-c1sc2cc(C)c(C)cc2c1-c1c(O)c(C)nn(C)c1=O [5-103] | 2 (Herbicidal rate of 20% or more and less than 40%) | 5 (Herbicidal rate of 90% or more (almost completely withered)) | 4 (Herbicidal rate of 70% or more and less than 90%) | 5 (Herbicidal rate of 90% or more (almost completely withered)) | 5 (Herbicidal rate of 90% or more (almost completely withered)) | 4 (Herbicidal rate of 70% or more and less than 90%) | 3 (Herbicidal rate of 40% or more and less than 70%) | 4 (Herbicidal rate of 70% or more and less than 90%) | 4 (Herbicidal rate of 70% or more and less than 90%) | 5 (Herbicidal rate of 90% or more (almost completely withered)) | 4 (Herbicidal rate of 70% or more and less than 90%) | 5 (Herbicidal rate of 90% or more (almost completely withered)) | 5 (Herbicidal rate of 90% or more (almost completely withered)) | 5 (Herbicidal rate of 90% or more (almost completely withered)) | 0 (Herbicidal rate of 5% or less (almost no effect)) | 5 (Herbicidal rate of 90% or more (almost completely withered)) | 4 (Herbicidal rate of 70% or more and less than 90%) | – |
| COc1ccccc1-c1sc2c(Cl)c(OC)ccc2c1-c1c(O)c(C)nn(C)c1=O [Compound No. 7-001, 4-(7-chloro-6-methoxy-2-(2-methoxyphenyl)benzo[b]thiophen-3-yl)-5-hydroxy-2,6-dimeth ylpyridazin-3-(2H)-one] | 5 (Herbicidal rate of 90% or more (almost completely withered)) | 3 (Herbicidal rate of 40% or more and less than 70%) | 3 (Herbicidal rate of 40% or more and less than 70%) | – | – | 0 (Herbicidal rate of 5% or less (almost no effect)) | 0 (Herbicidal rate of 5% or less (almost no effect)) | – | 4 (Herbicidal rate of 70% or more and less than 90%) | 5 (Herbicidal rate of 90% or more (almost completely withered)) | 4 (Herbicidal rate of 70% or more and less than 90%) | 5 (Herbicidal rate of 90% or more (almost completely withered)) | 5 (Herbicidal rate of 90% or more (almost completely withered)) | 4 (Herbicidal rate of 70% or more and less than 90%) | – | 5 (Herbicidal rate of 90% or more (almost completely withered)) | 5 (Herbicidal rate of 90% or more (almost completely withered)) | Herbicidal effect on E (rice flat sedge), foliage application (rice flat sedge; [9]): 4 (Herbicidal rate of 70% or more and less than 90%); Herbicidal effect on H (barnyard grass), foliage application (barnyard grass [5]; [9]): 5 (Herbicidal rate of 90% or more (almost completely withered)); Herbicidal effect on D (Chinese sprangletop), foliage application (Chinese sprangletop; [9]): 1 (Herbicidal rate of 5% or more and less than 20%) |
